Values of other authors, collected in patent US8247571B2, “Pyridinium and thiazolium conjugates including polyethylene glycols and methods of using the same” (Mycosol, Inc., priority 2005, dated 2012).

Test system: roundworms, threadworms, and whipworms
Conditions: reported; U.S. Pat. Nos. 3,075,975 and 3,085,935

CC[n+]1c(/C=C/c2ccc(N3CCCC3)cc2)cccc1/C=C/c1ccc(N2CCCC2)cc1.[I-] [Stilbazium iodide]
anthelmintic effectiveness: effective
